Read-outs that look alike come from different tables or passages of the source.
Biological target: Nav 1.7 (Homo sapiens (Human), UniProt Q15858)
Assay: Nav 1.7 IWQ in vitro assay (IonWorks Quattro population patch-clamp)
Assay type: cell-based
Settings: for IC50: 293 cells stably transfected with Nav 1.7
Protocol: Nav 1.7 or Nav 1.5 IWQ In Vitro Assay
293 Cells stably transfected with either Nav 1.7 or Nav 1.5 were recorded in population patch-clamp mode with the IonWorks® Quattro automated electrophysiology system in accordance with the manufacturer's specifications (Molecular Devices, LLC, Sunnyvale, Calif.). Sodium channel currents were measured in response to a train of depolarizations that induced successively greater inactivation.
Cells were then left unclamped for a period of 3 to 8 minutes while a single concentration of test compound was added. Cells were then reclamped and put through the same voltage protocol. Current at the end of the 26th pulse to −20 mV was subtracted from the peak current evoked by the 26th pulse to −20 mV to correct for leak current. Percent block was calculated for each concentration in duplicate, and IC50 curves were fitted to percent block as a function of concentration.

[1] = second part of table, read-out: Nav1.7 IWQ IC50 IP
[2] = first part of table, read-out: Nav 1.7 IWQ IC50

Chain of Nav 1.7 (Q15858 whole entry): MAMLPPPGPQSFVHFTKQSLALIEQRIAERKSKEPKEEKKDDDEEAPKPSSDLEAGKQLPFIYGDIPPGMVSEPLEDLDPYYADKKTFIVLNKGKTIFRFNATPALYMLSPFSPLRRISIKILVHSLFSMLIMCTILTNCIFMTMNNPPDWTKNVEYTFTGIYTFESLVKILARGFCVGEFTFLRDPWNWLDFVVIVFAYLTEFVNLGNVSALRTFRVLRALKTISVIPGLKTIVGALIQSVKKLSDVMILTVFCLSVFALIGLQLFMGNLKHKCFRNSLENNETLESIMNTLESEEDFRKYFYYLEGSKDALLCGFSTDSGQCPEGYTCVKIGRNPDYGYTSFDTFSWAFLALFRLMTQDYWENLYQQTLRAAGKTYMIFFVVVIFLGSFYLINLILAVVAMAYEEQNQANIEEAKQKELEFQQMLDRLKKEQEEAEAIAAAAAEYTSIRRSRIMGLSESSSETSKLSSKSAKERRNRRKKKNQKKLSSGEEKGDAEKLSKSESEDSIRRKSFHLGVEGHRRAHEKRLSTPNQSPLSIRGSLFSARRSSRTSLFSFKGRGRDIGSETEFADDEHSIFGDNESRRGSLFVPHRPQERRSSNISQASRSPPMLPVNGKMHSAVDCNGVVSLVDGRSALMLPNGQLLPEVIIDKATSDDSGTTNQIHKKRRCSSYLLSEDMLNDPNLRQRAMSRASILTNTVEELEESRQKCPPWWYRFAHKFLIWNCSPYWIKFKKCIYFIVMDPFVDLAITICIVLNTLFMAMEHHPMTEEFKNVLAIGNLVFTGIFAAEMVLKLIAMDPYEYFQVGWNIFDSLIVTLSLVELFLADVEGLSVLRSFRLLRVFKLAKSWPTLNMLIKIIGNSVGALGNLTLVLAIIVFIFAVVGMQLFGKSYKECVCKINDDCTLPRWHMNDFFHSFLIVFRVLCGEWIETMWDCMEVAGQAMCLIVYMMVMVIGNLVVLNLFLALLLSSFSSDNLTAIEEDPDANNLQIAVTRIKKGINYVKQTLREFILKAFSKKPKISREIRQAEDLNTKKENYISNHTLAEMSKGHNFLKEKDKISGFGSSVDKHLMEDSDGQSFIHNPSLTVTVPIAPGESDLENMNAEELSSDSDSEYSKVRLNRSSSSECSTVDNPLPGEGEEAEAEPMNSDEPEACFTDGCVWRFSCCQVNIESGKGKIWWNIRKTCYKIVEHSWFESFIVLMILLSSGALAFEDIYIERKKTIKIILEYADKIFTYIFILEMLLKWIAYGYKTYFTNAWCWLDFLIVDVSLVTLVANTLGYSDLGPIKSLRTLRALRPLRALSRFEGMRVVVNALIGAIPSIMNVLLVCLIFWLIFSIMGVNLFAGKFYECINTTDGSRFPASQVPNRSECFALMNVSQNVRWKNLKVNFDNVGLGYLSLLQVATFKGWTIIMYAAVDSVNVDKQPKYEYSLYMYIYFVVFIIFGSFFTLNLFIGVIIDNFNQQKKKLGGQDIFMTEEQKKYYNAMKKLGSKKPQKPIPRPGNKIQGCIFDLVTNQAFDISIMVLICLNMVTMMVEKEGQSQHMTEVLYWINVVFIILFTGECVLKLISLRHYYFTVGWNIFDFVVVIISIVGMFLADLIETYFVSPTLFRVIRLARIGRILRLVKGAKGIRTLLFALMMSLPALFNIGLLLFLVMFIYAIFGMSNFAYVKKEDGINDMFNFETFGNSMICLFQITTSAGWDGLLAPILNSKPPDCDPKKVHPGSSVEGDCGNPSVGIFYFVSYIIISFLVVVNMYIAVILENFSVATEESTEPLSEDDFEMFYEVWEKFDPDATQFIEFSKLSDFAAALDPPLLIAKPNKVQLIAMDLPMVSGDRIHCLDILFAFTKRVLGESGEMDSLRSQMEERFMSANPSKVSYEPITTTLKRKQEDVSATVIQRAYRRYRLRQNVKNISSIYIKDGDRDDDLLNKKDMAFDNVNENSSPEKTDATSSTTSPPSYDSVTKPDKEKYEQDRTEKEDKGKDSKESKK

SMILES | IC50 [1] | IC50 [2] | Nav1.7 Single Point Data IWQ (at […]) (%)
COc1ccncc1-c1nccc2cc(S(=O)(=O)Nc3ccncn3)ccc12 [Example 170, 1-(4-METHOXYPYRIDIN-3-YL)-N-(PYRIMIDIN-4-YL)ISOQUINOLINE-6-SULFONAMIDE] | 2650 nM | – | –
O=S(=O)(Nc1ccncn1)c1ccc2c(OCc3cccnc3)nccc2c1 [Example 128, 1-(PYRIDIN-3-YLMETHOXY)-N-(PYRIMIDIN-4-YL)ISOQUINOLINE-6-SULFONAMIDE] | 3960 nM | – | –
O=S(=O)(Nc1nccs1)c1ccc2c(N3CCCC3c3ccccc3)cccc2c1 (stereo not shown) [Example 80] | – | 1200 nM | –
O=S(=O)(Nc1ccncn1)c1ccc2c(-c3ccc(C(F)(F)F)cc3C3=CCNCC3)nccc2c1 [Example 69, N-(PYRIMIDIN-4-YL)-1-(2-(1,2,3,6-TETRAHYDROPYRIDIN-4-YL)-4-(TRIFLUOROMETHYL)PHENYL)ISOQUINOLINE-6-SULFONAMIDE 2,2,2-TRIFLUOROACETATE] | – | 60 nM | –
COc1ccc(-c2nccc3cc(S(=O)(=O)Nc4ncns4)ccc23)c(OC)c1 [Example 59, 1-(2,4-DIMETHOXYPHENYL)-N-(1,2,4-THIADIAZOL-5-YL)ISOQUINOLINE-6-SULFONAMIDE] | – | 60 nM | –
COc1cnccc1-c1nccc2cc(S(=O)(=O)Nc3ccncn3)ccc12 [Example 169, 1-(3-METHOXYPYRIDIN-4-YL)-N-(PYRIMIDIN-4-YL)ISOQUINOLINE-6-SULFONAMIDE] | 5170 nM | – | –
COc1cc(C(F)(F)F)ccc1-c1nccc2cc(S(=O)(=O)Nc3ccncn3)ccc12 [Example 67, 1-(2-METHOXY-4-(TRIFLUOROMETHYL)PHENYL)-N-(PYRIMIDIN-4-YL)ISOQUINOLINE-6-SULFONAMIDE] | – | 80 nM | –
O=S(=O)(Nc1ncns1)c1ccc2c(-c3ccc(Cl)cc3)nccc2c1 [Example 64, 1-(4-CHLOROPHENYL)-N-(1,2,4-THIADIAZOL-5-YL)ISOQUINOLINE-6-SULFONAMIDE] | – | 770 nM | –
O=S(=O)(Nc1ncns1)c1ccc2c(N3CCOC(c4ccccc4)C3)cccc2c1 (racemic) [Example 14 (mixture of isomers)] | – | 300 nM | –
O=S(=O)(Nc1ncns1)c1ccc2c(N3CCOC(c4ccccc4)C3)cccc2c1 (single isomer, unassigned) [14 (isomer 1), 5-(2-phenylmorpholino)-N-(1,2,4-thiadiazol-5-yl)naphthalene-2-sulfonamide] | – | 520 nM | –
O=S(=O)(Nc1nccs1)c1ccc2c(-c3ccc(C(F)(F)F)cc3C3=CCNCC3)nccc2c1 [Example 70, 1-(2-(1,2,3,6-TETRAHYDROPYRIDIN-4-YL)-4-(TRIFLUOROMETHYL)PHENYL)-N-(THIAZOL-2-YL)ISOQUINOLINE-6-SULFONAMIDE] | – | 15 nM | –
COc1cc(Cl)ccc1-c1cccc2cc(S(=O)(=O)Nc3ncco3)ccc12 [Example 45] | – | 225 nM | –
N#CC1(COc2nccc3cc(S(=O)(=O)Nc4ccncn4)ccc23)CC1 [Example 135, 1-((1-CYANOCYCLOPROPYL)METHOXY)-N-(PYRIMIDIN-4-YL)ISOQUINOLINE-6-SULFONAMIDE] | 3300 nM | – | –
Cc1cc(Cl)ccc1-c1nccc2cc(S(=O)(=O)Nc3ncns3)ccc12 [Example 62] | – | 90 nM | –
COc1cc(C(F)(F)F)ccc1-c1cccc2cc(S(=O)(=O)Nc3nccs3)ccc12 [Example 41] | – | 290 nM | –
COc1cc(C(F)(F)F)ccc1-c1cccc2cc(S(=O)(=O)Nc3ccncn3)ccc12 [Example 42] | – | 50 nM | –
Cc1cnc(OCC2CCC2)c(-c2nccc3cc(S(=O)(=O)Nc4nccs4)ccc23)c1 [Example 381, 1-(2-(CYCLOBUTYLMETHOXY)-5-METHYLPYRIDIN-3-YL)-N-(THIAZOL-2-YL)ISOQUINOLINE-6-SULFONAMIDE] | – | – | 26.5%
O=S(=O)(Nc1nccs1)c1ccc2c(N3CCN(c4ccc(Cl)c(Cl)c4)CC3)nccc2c1 [Example 247, 1-(4-(3,4-DICHLOROPHENYL)PIPERAZIN-1-YL)-N-(THIAZOL-2-YL)ISOQUINOLINE-6-SULFONAMIDE] | – | – | 35%
CN1CC=C(c2cc(C(F)(F)F)ccc2-c2nccc3cc(S(=O)(=O)Nc4ccncn4)ccc23)CC1 [Example 68, 1-(2-(1-METHYL-1,2,3,6-TETRAHYDROPYRIDIN-4-YL)-4-(TRIFLUOROMETHYL)PHENYL)-N-(PYRIMIDIN-4-YL)ISOQUINOLINE-6-SULFONAMIDE] | – | 1520 nM | –
Cc1cnc(OCc2ccccc2)c(-c2nccc3cc(S(=O)(=O)Nc4nccs4)ccc23)c1 [Example 380, 1-(2-(BENZYLOXY)-5-METHYLPYRIDIN-3-YL)-N-(THIAZOL-2-YL)ISOQUINOLINE-6-SULFONAMIDE] | – | – | 40%
Cn1nccc1-c1cc(C(F)(F)F)ccc1-c1cccc2cc(S(=O)(=O)Nc3ccncn3)ccc12 [Example 74] | – | 80 nM | –
CCC1CCCCN1c1ncnc2cc(S(=O)(=O)Nc3nccs3)ccc12 (stereo not shown) [Example 535, 4-(2-ETHYLPIPERIDIN-1-YL)-N-(THIAZOL-2-YL)QUINAZOLINE-7-SULFONAMIDE] | – | – | 26%
O=S(=O)(Nc1nccs1)c1ccc2c(-c3ccc(C(F)(F)F)cc3C3=CCNCC3)cccc2c1 [Example 77] | – | 70 nM | –
O=S(=O)(Nc1ccncn1)c1ccc2c(-c3cccc4ccsc34)nccc2c1 [Example 162, 1-(BENZO[B]THIOPHEN-7-YL)-N-(PYRIMIDIN-4-YL)ISOQUINOLINE-6-SULFONAMIDE] | 4120 nM | – | –
O=S(=O)(Nc1nccs1)c1ccc2c(-c3ccc(C(F)(F)F)cc3Cl)cccc2c1 [Example 79] | – | 900 nM | –
Cc1cc(C#N)ccc1-c1nccc2cc(S(=O)(=O)Nc3ccncn3)ccc12 [Example 159] | 4830 nM | – | –
O=S(=O)(Nc1ccncn1)c1ccc2c(-c3ccc(C(F)(F)F)cc3-c3ccncc3)nccc2c1 [Example 65, 1-(2-(PYRIDIN-4-YL)-4-(TRIFLUOROMETHYL)PHENYL)-N-(PYRIMIDIN-4-YL)ISOQUINOLINE-6-SULFONAMIDE] | – | 320 nM | –
O=S(=O)(Nc1ncns1)c1ccc2c(-c3ccc(C(F)(F)F)c(Cl)c3)nccc2c1 [Example 57, 1-(3-CHLORO-4-(TRIFLUOROMETHYL)PHENYL)-N-(1,2,4-THIADIAZOL-5-YL)ISOQUINOLINE-6-SULFONAMIDE] | – | 220 nM | –
O=S(=O)(Nc1ncns1)c1ccc2c(N3CCCC3c3ccccc3)cccc2c1 (stereo not shown) [Example 83] | – | 10 nM | –
CN(C)C(=O)C1CN(c2cccc3cc(S(=O)(=O)Nc4ncns4)ccc23)CCO1 (stereo not shown) [Example 19] | – | 1180 nM | –

Now from value to compound:

IC50 [1] | IC50 [2] | Nav1.7 Single Point Data IWQ (at […]) (%) | SMILES
> 10000 nM | – | 30% | N#Cc1cccc2cc(S(=O)(=O)Nc3ncns3)ccc12 [Example 317]
> 10000 nM | – | 26% | O=S(=O)(Nc1ccncn1)c1ccc2c(C3CCCN3C3CCOCC3)nccc2c1 (stereo not shown) [Example 316, N-(PYRIMIDIN-4-YL)-1-(1-(TETRAHYDRO-2H-PYRAN-4-YL)PYRROLIDIN-2-YL)ISOQUINOLINE-6-SULFONAMIDE 2,2,2-TRIFLUOROACETATE]
– | – | <20% | COc1cc(C(F)(F)F)ccc1-c1ncnc2cc(S(=O)(=O)NC3=NCCS3)ccc12 [Example 520, N-(4,5-DIHYDROTHIAZOL-2-YL)-4-(2-METHOXY-4-(TRIFLUOROMETHYL)PHENYL)QUINAZOLINE-7-SULFONAMIDE]
– | – | 34.8% | COc1cc(C(F)(F)F)ccc1-c1nccc2cc(S(=O)(=O)Nc3cnncn3)ccc12 [Example 391, 1-(2-METHOXY-4-(TRIFLUOROMETHYL)PHENYL)-N-(1,2,4-TRIAZIN-5-YL)ISOQUINOLINE-6-SULFONAMIDE]
– | – | 28.3% | O=S(=O)(Nc1nccs1)c1ccc2c(N3CCCCC3c3cccnc3)ncnc2c1 (stereo not shown) [Example 536, 4-(2-(PYRIDIN-3-YL)PIPERIDIN-1-YL)-N-(THIAZOL-2-YL)QUINAZOLINE-7-SULFONAMIDE]
– | – | 21.2% | Cc1cc(S(=O)(=O)N(C)C)ccc1-c1nccc2cc(S(=O)(=O)Nc3ccncn3)ccc12 [Example 433]
– | – | 25.3% | CC(C)(C#N)c1ccccc1-c1nccc2cc(S(=O)(=O)Nc3nccs3)ccc12 [Example 385, 1-(2-(2-CYANOPROPAN-2-YL)PHENYL)-N-(THIAZOL-2-YL)ISOQUINOLINE-6-SULFONAMIDE]
> 10000 nM | – | 29% | O=S(=O)(Nc1ccncn1)c1ccc2c(OCc3cccnc3N3CCOCC3)nccc2c1 [Example 298, 1-((2-MORPHOLINOPYRIDIN-3-YL)METHOXY)-N-(PYRIMIDIN-4-YL)ISOQUINOLINE-6-SULFONAMIDE]
– | – | 35.4% | CC(C)c1ccc2[nH]ncc2c1-c1nccc2cc(S(=O)(=O)Nc3ccncn3)ccc12 [Example 430, 1-(5-ISOPROPYL-1H-INDAZOL-4-YL)-N-(PYRIMIDIN-4-YL)ISOQUINOLINE-6-SULFONAMIDE]
4980 nM | – | – | O=S(=O)(Nc1ccncn1)c1ccc2c(Oc3ccc(Cl)c(Cl)c3)nccc2c1 [Example 193, 1-(3,4-DICHLOROPHENOXY)-N-(PYRIMIDIN-4-YL)ISOQUINOLINE-6-SULFONAMIDE]
– | – | 29% | Cc1noc(C)c1-c1nccc2cc(S(=O)(=O)Nc3ccncn3)ccc12 [Example 311, 1-(3,5-DIMETHYLISOXAZOL-4-YL)-N-(PYRIMIDIN-4-YL)ISOQUINOLINE-6-SULFONAMIDE]
– | – | 33.5% | CC1CN(c2cccc(F)c2)CCN1c1nccc2cc(S(=O)(=O)Nc3ccncn3)ccc12 (stereo not shown) [Example 403, 1-(4-(3-FLUOROPHENYL)-2-METHYLPIPERAZIN-1-YL)-N-(PYRIMIDIN-4-YL)ISOQUINOLINE-6-SULFONAMIDE]
– | – | 24.7% | COc1cc(-c2ncc(Cl)s2)ccc1-c1nccc2cc(S(=O)(=O)Nc3ccncn3)ccc12 [Example 458, 1-(4-(5-CHLOROTHIAZOL-2-YL)-2-METHOXYPHENYL)-N-(PYRIMIDIN-4-YL)ISOQUINOLINE-6-SULFONAMIDE]
